Results as given in US10954244B2, “Compounds and uses thereof” (Kala Pharmaceuticals, Inc., priority 2013, dated 2021).
Blank lines part the entries; values can stand above or below the compound they belong to.

What was measured:
[1] = Physical and chemical stability of I-2 solutions at room temperature; type: physicochemical; conditions: formulation buffered in 20 mM Tris (pH 8), F127
Method: Solutions of I-2 were formulated with F127 or Tween 80, and under a range of pH values. Briefly, I-2 was first completely solubilized using an acidic solution (0.1 N HCl) at a high concentration of ˜5% (w/v). The final formulation was diluted to a solution consisting of 0.5% (w/v) I-2 into buffered solution containing F127 or Tween 80 as described in Table 5. Following dilution, the pH of the formulations was measured using pH indicator strips (PEHANON) and confirmed to be within expected range (±0.5 units of target pH).
Physical and chemical stability of the solutions at room temperature (20-25° C.) were assessed after 7-10 days (tfinal). Physical instability in a solution can manifest as the precipitation and sedimentation of the drug of interest and excipients over time. To assess physical stability, the formulations at tfinal were first filtered through a 300 kDa modified polyethersulfone filter membrane (Nanosep) to remove any precipitate in the solution. The concentration of I-2 in the filtrates was then measured and compared to that at t=0. The purity of I-2 in the unfiltered solution was also evaluated at tfinal, to further confirm chemical stability. This parameter is defined by the area under the signal peak that is attributed to compound I-2 as a percentage of all peaks reported by in the sample by HPLC (% peak area).

[2] = Draize-Ocular Irritation assessment; type: in vivo, Dutch-belted rabbits; conditions: topical I-2 solution during the PK studies
[3] = Mobility of nanoparticles in human cervicovaginal mucus (dark field microscopy); conditions: low pH of CVM
Method: In order to determine whether the generated nanoparticles have reduced interactions with mucins and are therefore able to move within mucus without becoming trapped, particles were incubated with human cervicovaginal mucus (CVM) and observed via dark field microscopy. In a typical experiment, 51 μL of the nanoparticle suspension was added to 20 μl of CVM. Observations were made in a minimum of three distinct and randomly selected areas of the CVM sample. Control particles with known behavior were used to qualify the CVM sample as appropriate for the assay.

[4] = Milling with Pluronic F127 to mucus penetrating particles, particle size by dynamic light scattering; type: physicochemical; conditions: formulated as MPP, milled with Pluronic F127, DPBS buffered
Source text: Compounds of the present invention synthesized in accordance with the preceding Examples were formulated as mucus penetrating particles (MPP). Specifically, compounds I-2, compound I-5, and compound I-6 were each milled in the presence of Pluronic F127 (F127) to determine whether F127 1) aids particle size reduction to several hundreds of nanometers and 2) physically (non-covalently) coats the surface of generated nanoparticles with a mucoinert coating that would minimize particle interactions with mucus constituents and prevent mucus adhesion.
A milling procedure was employed in which an aqueous dispersion containing coarse drug particles and Pluronic F127 (F127) was milled with grinding medium until particle size was reduced below 400 nm as measured by dynamic light scattering. Table 4 lists the size of particles and polydispersity index (a measure of the width of the particle size distribution) generated using this technique. In this example suspensions were buffered using DPBS (Dulbecco's Phosphate-Buffered Saline) which yields a suspension that is both isotonic and has a physiologically relevant pH.

- solubility in CVM [3]: soluble in the low pH of CVM
Compound: Cc1cc(C(=O)Nc2cc(Oc3ccc4nc(NC(=O)CN5CC[C@H](N(C)C)C5)cn4n3)ccc2C)n(C)n1 [Compound I-2]
- physical stability of the solution [1]: major physical instability (i.e., precipitation)
- Draize-Ocular Irritation [2]: no irritation was seen

- Polydispersity Index (PDI) [4]: 0.160
Compound: Cc1cc(C(=O)Nc2cc(Oc3ccc4nc(NC(=O)NC5COC5)cn4n3)ccc2C)n(C)n1 [Compound I-5]

- Particle Size ([4]; dynamic light scattering): 245 nm
Compound: Cc1ccc(Oc2ccc3nc(NC(=O)CC4COC4)cn3n2)cc1NC(=O)c1cccc(F)c1 [Compound I-6]
